Laboratory results from US9744250B2, “Chemical model of a neurodegenerative disease, method for preparation and uses of same” (priority 2012, dated 2017).

Legend:
[1] = system: alpha-synuclein in the striata; test: Immunolabeling of alpha-synuclein in coronal striatum sections of exposed rats; type: in vivo, rat; conditions: 20 mg/kg/day oral 7 days, sacrificed 5 weeks after last dose
From the text: (§1) Male albino Sprague Dawley rats (adults weighing […]) were housed in a temperature-controlled room with free access to food and water.
A platform for electrophysiological and behavioral monitoring of the rats was used. For this, a subcutaneous implant (Data Science) was placed in the rats which allowed the EEG to be recorded by telemetry, leaving the animal completely free to move about. The cage was equipped with a video camera (10 frames per second) and an infrared light to allow recordation of the animal's activity. The EEG and video sequences were recorded in sequences of 10 seconds, and a set of variables was calculated for each sequence. The use of dedicated software allowed integration of these variables over the entire recording to detect changes in the animal's activity, EEG, and circadian rhythms. Each animal served as its own control because it was recorded for 5 days prior to furosemide pyridinium administration. The solution of furosemide pyridinium (20 mg) was dissolved in dimethylsulfoxide (DMSO, 200 μl) and then diluted with water (50 ml). The solution was replaced every day and administered for 7 days in the drinking water at a dose of 20 mg/kg. The rats were then sacrificed 5 weeks after the last dose. The rats were anesthetized with pentobarbital and infused intracardially with saline ([…]), then fixed with 4% paraformaldehyde. […]

[2] = system: caspase-8; test: Caspase-8 activity (Ac-IETD-AFC cleavage) in SH-SY5Y cells; type: cell-based, human; conditions: 1 mM, 96 h
Method: Measurement of the activities of the various caspases is based on the ability of the caspases to cleave specific fluorescent substrates: Ac-DEVD-AFC for caspase-3, Ac-IETD-AFC for caspase-8, or Ac-LEHD-AFC for caspase-9. SH-SY5Y neuronal cells were incubated in 48-well plates with either furosemide pyridinium (1 mM) for 96 h or with MPP+ (1 mM) for 6 h, then 24 h of incubation with no MPP+. After incubation, the cells were trypsinized, then rinsed with PBS and counted, then harvested in 100 μl of buffer containing 30 mM HEPES, 0.3 mM EDTA, 100 mM NaCl, 0.15% Triton X-100, and 10 mM DTT. The cell extract was then incubated for 1 hour at 37° C. with the specific substrate (100 μM) in a 96-well plate. Fluorescence was measured at λex400 nm and λem505 nm in a fluorescence detection plate reader (TECAN Infinite M1000) (Yue et al., supra). The results were expressed as percentages relative to the measured activity of cells cultured under the same conditions and not subjected to any treatment.

[3] = system: α-synuclein; test: Cellular accumulation of α-synuclein (Western blot) in SH-SY5Y cells; type: cell-based, human; conditions: 1 mM, 96 h incubation
Method: Cells were incubated under the same conditions as above with furosemide pyridinium (1 mM, incubation: 96 h) and MPP+ (1 mM, incubation: 6 h, wait 24 h). After incubation, the cells were trypsinized, rinsed with PBS, counted, then harvested in 100 μl of buffer containing: 250 mM sucrose; 70 mM KCl; 137 mm NaCl; 4.3 mm NaH2PO4; 1.4 mm KH2PO4, pH 7.2; and […] digitonin. Incubation at 4° C. was then conducted for 5 minutes before centrifuging at 13,000 g for 5 minutes to separate the cytosolic and lysosomal fraction from the mitochondrial fraction. Deposits of cytosolic fraction in the Western blot were adjusted according to the number of cells. The protein samples were diluted in 4× Laemmli and were then heated for 3 minutes at 95° C. to denature. They were loaded into the wells of gel. In addition to the samples, a molecular weight marker (Fermentas) was deposited in the gel. […] The transfer was carried out on PVDF membrane. The transfer was done in transfer buffer (25 mM Tris, 192 mM glycine, 10% methanol) overnight at 4° C. and 30V or for 2 hours at 4° C. and 80V. […] Then the membranes were immunolabeled for 1.5 h at room temperature with a primary antibody diluted in 1×PBS/0.2% Tween/3% milk. […] The primary antibody used was anti-α-synuclein, 1:500 (visualized with an anti-rabbit secondary antibody, 1:10,000).

[4] = system: mice; test: Lethality of 7-day oral administration in mice; type: in vivo, mouse; conditions: daily dose of 20 mg/kg for seven days
Method: Swiss mice were divided into two groups of five animals (experimental and control). The experiments were performed independently two times. The mice of the experimental group were exposed to furosemide pyridinium for 7 days at a daily dose of 20 mg/kg. The furosemide pyridinium was administered orally in the drinking water. The mice were sacrificed 30 days after the end of the furosemide pyridinium treatment.

[5] = system: Sprague Dawley rats; test: EEG and sleep/arousal telemetry monitoring of exposed rats; type: in vivo, rat; conditions: 20 mg/kg/day oral 7 days
From the text: as §1
A platform for electrophysiological and behavioral monitoring of the rats was used. For this, a subcutaneous implant (Data Science) was placed in the rats which allowed the EEG to be recorded by telemetry, leaving the animal completely free to move about. The cage was equipped with a video camera (10 frames per second) and an infrared light to allow recordation of the animal's activity. The EEG and video sequences were recorded in sequences of 10 seconds, and a set of variables was calculated for each sequence. The use of dedicated software allowed integration of these variables over the entire recording to detect changes in the animal's activity, EEG, and circadian rhythms. Each animal served as its own control because it was recorded for 5 days prior to furosemide pyridinium administration. The solution of furosemide pyridinium (20 mg) was dissolved in dimethylsulfoxide (DMSO, 200 μl) and then diluted with water (50 ml). The solution was replaced every day and administered for 7 days in the drinking water at a dose of 20 mg/kg. The rats were then sacrificed 5 weeks after the last dose. The rats were anesthetized with pentobarbital and infused intracardially with saline ([…]), then fixed with 4% paraformaldehyde. After the infusion, the brain was removed and placed in NaCl (0.9%) at 4° C. The brain was frozen in Tissue Tek immersed in a cold isopentane bath. Coronal sections of eight microns were obtained using a cryostat and were processed for immunocytochemistry (labeling the alpha-synuclein).

With `NS(=O)(=O)c1cc(C(=O)[O-])c(-[n+]2cccc(O)c2)cc1Cl` [furosemide pyridinium, 4-chloro-2-(3-hydroxypyridinium-1-yl)-5-sulfamoylbenzoate] as the molecule, how does the “alpha-synuclein in the striata (immunolabeling)” value [1] read?
Its value is “significant increase”.

What about the “change in caspase-8 activity” value [2] of the same molecule?
Its value is “did not induce significant changes”.

And the “increase in the total amount of α-synuclein compared to control cells” value [3]?
Its value is 40%.

What about the lethality [4] of the same molecule?
Its lethality is “not lethal”.

What about the “increase in number of REM sleep phases” value ([5]; five weeks after end of exposure) of the same molecule?
Its value is 2 ×.

What about the “sleep and arousal phases” value ([5]; five weeks after end of treatment) of the same molecule?
Its value is “do not indicate changes”.

And the “amplitude of the electroencephalogram” value ([5]; five weeks after end of treatment vs before exposure)?
The value was “significant decrease”.
